According to patent publication US9884863B2, “STAT3 inhibitor” (Board of Regents, The University of Texas System, priority 2013, dated 2018):

Tests used:
[1] = tested on: STAT3 and pSTAT3 in MDA-MB-453 and BT474 cells; test: Transient transfection of STAT3 expression vector and Western blot; format: cell-based, human; conditions: 10 μM, 12 h
Procedure: Transient Transfection of STAT3 Expression Vector: Transient transfection was conducted using Fugene HD reagent (Invitrogen, N.Y., USA) per manufacturer's instructions. Briefly, MDA-MB-453 and BT474 cells were seeded in 100 mm^2 culture dishes and incubated overnight. Culture medium was changed to FBS free media 1 h prior to transfection, and 15 μg STAT3C over-expression vector (#24983, Addgene, Mass., USA), 45 μL Fugene HD together with 879 μL opti-MEM (Invitrogen, N.Y.) was added into each dish. Eight hours after transfection, the media was removed and changed to regular media containing 10% FBS. […] After 12 h treatment, total cell lysates were collected and proceeded to Western blot analysis.

[2] = tested on: MDA-MB-231 xenograft tumors; test: MDA-MB-231 xenograft tumor growth in nude mice; format: in vivo; conditions: oral gavage daily for 14 days
MDA-MB-231 cells = test: Apoptosis assay (annexin V, flow cytometry); format: cell-based, human; conditions: MDA-MB-231
Procedure: Cell Cycle Assay and Apoptosis Assay: Cell cycle and apoptosis kits (#MCH100106 and #MCH100105, Millipore, Mass.) were used. […] 24 and 48 h after drug treatment, both adherent and floating cells were collected, washed once with PBS and fixed in cold ethanol for at least 4 h before cell cycle analysis. The fixed cells were then washed twice with PBS and resuspended in 200 μL cell cycle detection reagent, incubated for 30 minutes in dark at room temperature. Cell cycle distribution was measured by the Muse Cell Analyzer with Muse™ Cell Cycle. Similarly, MDA-MB-231 cells with the same treatments were prepared for apoptosis assay. After washing with PBS, resuspended cells were incubated with 100 μL PBS containing 1% BSA and 100 μL Annexin V and dead cell detection reagent in dark for 20 minutes at room temperature. Apoptosis was measured immediately using the Muse Cell Analyzer with the Muse™ Apoptosis Program.

[3] = tested on: STAT3 and pSTAT3 in MDA-MB-231 xenograft tumors; test: IHC and Western blot of xenograft tumors; format: in vivo, mice
From the text: Immunohistochemistry (IHC): Paraffin blocks of the collected tissue were sectioned into 4 μm thickness and stained with H&E as a reference. All slides were subjected to phospho-STAT3 (Y705) IHC with ABC staining method. Rabbit or mouse IgG ABC kit was purchased from Vector Laboratories (Burlingame, Calif., USA) and ABC staining reagents were purchased from Sigma Aldrich (Louis, Mo., USA). PBS was used instead of primary antibody as a negative control.

[4] = tested on: STAT family, STAT3-dependent genes and JAKs in MDA-MB-468 cells; test: Western blot analysis, MDA-MB-468 cells; format: cell-based, human
[5] = tested on: STAT family, STAT3-dependent genes and JAKs in MDA-MB-231 cells; test: Western blot analysis, MDA-MB-231 cells; format: cell-based, human
Procedure: Blocking STAT3 signaling in many different tumor cells leads to induce growth arrest and apoptosis (Turkson, J. et al., 2000; Bromberg, J., 2002; Zhang, X. et al., 2012).
Western Blot Analysis. Protein levels were determined by Western blot using the previously described methods (Shen, Q. et al., 2008). Total cell lysates were prepared from MDA-MB-231 cells. Protein concentrations were measured using the BCA Protein Assay Reagent (Pierce, Rockford, Ill., USA). Equal amounts of total cellular protein extract (40 μg) were resuspended in denaturing sample loading buffer (0.5 M Tris-HCl, pH 6.8, 10% SDS, 0.1% bromophenol blue, and 20% glycerol), separated by electrophoresis on a 10% polyacrylamide SDS-PAGE gel and then electrophoretically transferred to a nitrocellulose membrane (Thermo Scientific, Ill., USA) at 100 Volts for 1 h at 4° C. The membrane was then incubated in a blocking solution containing 5% non-fat milk and 1% Tween 20 in TBS for 1 h. The membrane was then incubated with antibodies specific for: phospho-STAT3-pY705 (1:3000, Epitomics, #2236-1), STAT3 (1:2000, Cell Signaling, #4904), Caspase-3-cleaved (1:2000, Epitomics, #1476-1), Cyclin D1 (1:10000, Epitomics, #2261-1) and β-actin (1:10000, Sigma, clone AC-15). An anti-rabbit or anti-mouse secondary antibody (Amersham, Piscataway, N.J.) was used at 1:4000 dilution. The Western blotted bands were visualized using ECL procedure according to the manufacturer's instructions (Amersham).

[6] = tested on: pSTAT3 nuclear translocation in MDA-MB-231 cells; test: IL-6 induction of STAT3 phosphorylation and nuclear translocation; format: cell-based, human; conditions: treatment for 6 h, IL-6 1 h
Procedure: IL-6 Induction of STAT3 Phosphorylation and Nuclear Translocation: A total of 5×10^4 MDA-MB-231 cells were seeded into each well of the chamber slides (#154526, Thermo, N.Y.) and cultured overnight. Cells were starved up to 24 h prior to the designated drug treatment. […] After stimulation with IL-6 (50 ng/mL) for 1 h, the culture media were aspirated and followed by DPBS (Gibco, Auckland, NZ) wash twice. Then cells were fixed with 4% paraformaldehyde for 10 min, followed by permeabilization using 100% methanol, blocking buffer for 1 h at room temperature, and incubation with primary antibodies at 4° C. overnight. After incubation with secondary antibody for 1 h, slides were stained with DAPI (Invitrogen, CA) for 5 min, and then anti-fade mounting media added to each chamber. Cells were then analyzed under immunofluorescence microscope with laser-scanning confocal imaging system (Nikon TS100F).

[7] = tested on: MDA-MB-231 and MDA-MB-468 cells; test: Colony formation assay; format: cell-based, human; conditions: 15 days, starting at 0.625 μM
Procedure: Colony Formation Assay: MDA-MB-468 and MDA-MB-231 cells were seeded in 6-well plates with a density of 800-3000 cells/well, respectively. […] The culture media with the compounds were changed every 72 h. After two weeks, the wells were washed twice with PBS buffer and 2 mL of 0.01% crystal violet staining buffer was added and incubated for 10 min. The wells were then washed with PBS for 5 min for three times, and allowed to dry. Photographs were then taken and the density of the entire culture well area was digitally measured using the GelCount™ instrument (Oxford Optronix, UK). Experiments were performed in triplicate and the density data were analyzed with one-way ANOVA using GraphPad Prizm 6 software. Error bars represent standard deviation.

STAT3 = STAT3 (Homo sapiens, UniProt P40763); conditions: Schust et al. 2006; read-out: IC50, binding to STAT3; cited from earlier work
STAT3, sequence (P40763 whole entry, species assumed): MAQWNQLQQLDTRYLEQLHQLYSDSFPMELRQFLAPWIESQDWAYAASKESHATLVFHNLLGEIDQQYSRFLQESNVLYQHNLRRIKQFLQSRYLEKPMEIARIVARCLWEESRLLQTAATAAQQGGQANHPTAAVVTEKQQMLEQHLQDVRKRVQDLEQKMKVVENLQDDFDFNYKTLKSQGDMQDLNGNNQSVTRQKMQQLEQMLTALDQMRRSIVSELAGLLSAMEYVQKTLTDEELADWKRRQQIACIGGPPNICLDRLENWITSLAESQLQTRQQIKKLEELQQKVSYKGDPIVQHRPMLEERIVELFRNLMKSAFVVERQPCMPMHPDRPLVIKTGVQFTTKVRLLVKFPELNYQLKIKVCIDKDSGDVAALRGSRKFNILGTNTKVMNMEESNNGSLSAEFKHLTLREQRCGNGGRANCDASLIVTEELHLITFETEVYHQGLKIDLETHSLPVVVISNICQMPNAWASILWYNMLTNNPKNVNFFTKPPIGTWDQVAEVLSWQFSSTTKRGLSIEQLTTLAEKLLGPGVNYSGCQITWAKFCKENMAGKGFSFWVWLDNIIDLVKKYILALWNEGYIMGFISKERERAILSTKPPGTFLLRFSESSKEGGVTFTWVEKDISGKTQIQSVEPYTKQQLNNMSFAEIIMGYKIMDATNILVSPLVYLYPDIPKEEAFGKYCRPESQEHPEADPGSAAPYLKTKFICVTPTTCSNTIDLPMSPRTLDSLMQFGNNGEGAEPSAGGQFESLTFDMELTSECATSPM

NCCOc1ccc(Cl)cc1C(=O)Nc1ccc([N+](=O)[O-])cc1Cl [HJC0152]
STAT3 and pSTAT3 levels after forced expression of STAT3 [1]: significantly decreased | reduction in tumor growth, 25 mg/kg [2]: approximately 80% | apoptosis at 1 μM (MDA-MB-231 cells): 8% | apoptosis at 10 μM (MDA-MB-231 cells): 23% | pSTAT3 (Y705) level in xenograft tumors, IHC ([3]; 25 mg/kg oral): significant effect on reducing pSTAT3 level | STAT3 and pSTAT3 (Y705 and S727) in tumor lysates, Western blot ([3]; oral gavage 14 days): decreased | JAK3 ([4]; MDA-MB-468): minimal alterations | STAT1 ([4]; MDA-MB-468): minimal changes | cleaved PARP1 ([4]; MDA-MB-468): induced from 6 h | JAK2 and pJAK2 ([4]; MDA-MB-468, 12 h, recovered at 24 h): transient down-regulation | JAK1 protein ([4]; MDA-MB-468, 12 h and 24 h): decreased level | Bcl-2 and cyclin D1 ([4]; MDA-MB-468, from 6 h): decreased level | pSTAT1 at Y701 and S727 ([4]; MDA-MB-468, from 6 h, 10 μM): down-regulation | STAT5 and pSTAT5 (Y694) ([4]; MDA-MB-468, from 12 h, 5 μM): decreased level | STAT3 and pSTAT3 ([4]; MDA-MB-468, starting at 3 h): down-regulation | JAK1 or pJAK1 (Y1022) ([5]; MDA-MB-231): no changes | Mcl-1 ([5]; MDA-MB-231): decrease starting from 6 h | STAT1 and active STAT1 at Y701 or S727 ([5]; MDA-MB-231): no significant changes | STAT2, STAT4 and STAT6 ([5]; MDA-MB-231): minimal changes | cleaved caspase 3 ([5]; MDA-MB-231): induced at 12 h | pSTAT3 at S727 residue ([5]; MDA-MB-231): continuous inhibition to 24 h | STAT5 ([5]; MDA-MB-231, 5 and 10 μM): transient decrease at 6 h | pSTAT5 ([5]; MDA-MB-231, 12 and 24 h, 5 and 10 μM): moderate decrease | pSTAT3 at Y705 residue ([5]; MDA-MB-231, 6 h, recovered at 24 h): significantly decreased | Bcl-xl protein and cyclin D1 ([5]; MDA-MB-231, 24 h): not altered | JAK2 and pJAK2 (Y1007 & Y1008) ([5]; MDA-MB-231, from 6 h, 5 μM and 10 μM): apparent down-regulation | IL-6 induced nuclear translocation of pSTAT3 [6]: blocked | colony formation [7]: significant suppression of colony formation

O=[N+]([O-])c1ccc2c(c1)S(=O)(=O)C=C2 [Stattic]
IC50 (STAT3): 5.1 µM
